# Key:
# Test in all cases: relative viability (nuclei count vs DMSO), 5 days (fraction); higher = more cells survive
# Nelarabine + Luminespib = compound: COc1nc(N)nc2c1ncn2[C@@H]1O[C@H](CO)[C@@H](O)[C@@H]1O [Nelarabine] + CCNC(=O)c1noc(-c2cc(C(C)C)c(O)cc2O)c1-c1ccc(CN2CCOCC2)cc1 [Luminespib] (partner 0.01 µM)
# Summary of the method: (§1)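 One day after seeding in 1536-well plates, lung cancer cell lines were dosed by pin tool. Dosing was either single-drug or a fixed anchor-drug dose plus five library-drug doses (not always all listed) in √10 steps. After 5 days, nuclei were stained in one fix-and-stain step and counted on 4× images, and relative viability is the nuclei count of treated wells over that of vehicle wells, given as the median of duplicate plates.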
# Nelarabine + Olaparib = compound: COc1nc(N)nc2c1ncn2[C@@H]1O[C@H](CO)[C@@H](O)[C@@H]1O [Nelarabine] + O=C(c1cc(Cc2n[nH]c(=O)c3ccccc23)ccc1F)N1CCN(C(=O)C2CC2)CC1 [Olaparib] (partner 8 µM)
# Summary of the method: as §1
# Adavosertib + Vorinostat = compound: C=CCn1c(=O)c2cnc(Nc3ccc(N4CCN(C)CC4)cc3)nc2n1-c1cccc(C(C)(C)O)n1 [Adavosertib] + O=C(CCCCCCC(=O)Nc1ccccc1)NO [Vorinostat] (partner 1 µM)
# Summary of the method: as §1
# Nelarabine + Linsitinib = compound: COc1nc(N)nc2c1ncn2[C@@H]1O[C@H](CO)[C@@H](O)[C@@H]1O [Nelarabine] + C[C@]1(O)C[C@@H](c2nc(-c3ccc4ccc(-c5ccccc5)nc4c3)c3c(N)nccn32)C1 [Linsitinib] (partner 1 µM)
# Summary of the method: as §1
Cell Line,relative viability (Nelarabine + Luminespib; first compound 0.01 µM),relative viability (Nelarabine + Luminespib; first compound 0.03162 µM),relative viability (Nelarabine + Luminespib; first compound 0.1 µM),relative viability (Nelarabine + Luminespib; first compound 0.3162 µM),relative viability (Nelarabine + Luminespib; first compound 1 µM),relative viability (Nelarabine + Olaparib; first compound 0.01 µM),relative viability (Nelarabine + Olaparib; first compound 0.03162 µM),relative viability (Nelarabine + Olaparib; first compound 0.1 µM),relative viability (Nelarabine + Olaparib; first compound 0.3162 µM),relative viability (Nelarabine + Olaparib; first compound 1 µM),relative viability (Adavosertib + Vorinostat; first compound 0.01 µM),relative viability (Adavosertib + Vorinostat; first compound 0.03162 µM),relative viability (Adavosertib + Vorinostat; first compound 0.1 µM),relative viability (Adavosertib + Vorinostat; first compound 0.3162 µM),relative viability (Nelarabine + Linsitinib; first compound 0.01 µM),relative viability (Nelarabine + Linsitinib; first compound 0.03162 µM),relative viability (Nelarabine + Linsitinib; first compound 0.1 µM),relative viability (Nelarabine + Linsitinib; first compound 0.3162 µM),relative viability (Nelarabine + Linsitinib; first compound 1 µM)
NCI-H1623,0.467,0.574,0.588,0.483,0.621,,,,,,,,,,,,,,
HARA,0.77,0.84,1,0.863,0.749,0.843,0.569,0.746,0.834,0.636,0.485,0.629,0.592,0.587,1.29,0.814,0.771,1.18,0.941
NCI-H2126,1.04,0.951,0.822,0.892,0.977,1.05,0.981,0.951,0.961,0.967,0.738,0.759,0.781,0.789,0.71,0.824,0.754,0.711,0.689
NCI-H1703,,,,,,0.547,0.293,0.295,0.557,0.524,,,,,1.05,0.66,0.666,0.541,0.834
UMC-11,1.24,0.961,1.03,0.973,0.893,0.36,0.469,0.356,0.386,0.357,0.438,0.405,0.346,0.308,1.34,0.768,0.949,0.987,0.896
PC-14,0.145,0.177,0.118,0.178,0.151,0.265,0.205,0.31,0.251,0.294,0.841,0.85,0.638,0.183,1.03,0.96,0.986,0.979,1.03
NCI-H1792,0.406,0.537,0.451,0.425,0.55,0.52,0.42,0.581,0.566,0.436,,,,,0.621,,0.548,0.702,0.716
NCI-H1651,1.01,0.953,0.822,0.985,0.856,0.183,0.195,0.213,0.171,0.193,0.524,0.626,0.567,0.538,1.13,0.88,1.15,0.992,0.906
HCC-15,0.304,0.158,0.349,0.295,0.409,0.813,0.691,0.931,0.667,0.846,0.908,0.823,0.86,0.829,1.06,0.841,0.904,0.87,1
NCI-H2170,1.17,1.21,0.602,0.746,0.465,0.708,0.561,0.61,0.577,0.547,0.866,0.818,0.788,0.676,,,,,
SW 1573,0.168,0.174,0.164,0.34,0.229,0.52,0.469,0.553,0.565,0.66,0.807,0.687,0.904,0.758,0.82,0.646,0.848,0.799,0.73
NCI-H661,1.04,1.09,0.928,0.914,0.911,0.876,0.709,0.762,0.748,0.796,0.847,0.809,0.764,0.351,0.719,0.859,0.723,0.555,0.535
PC-3 [JPC-3],0.651,0.429,0.697,0.703,0.601,1.46,1.2,1.1,1.25,1.22,,0.756,0.621,0.753,1.05,0.958,0.943,0.942,0.975
NCI-H358,0.409,,0.28,0.308,0.309,0.616,0.406,0.587,0.637,0.627,0.622,0.597,0.637,0.219,0.891,0.613,0.694,0.865,0.74
COR-L23,0.973,0.796,0.576,0.906,0.869,0.432,0.31,0.301,0.373,0.363,0.486,0.406,0.386,0.166,1.12,0.996,1,0.911,1.06
IA-LM,,,,,,0.932,0.811,0.877,0.825,0.789,,0.904,1.07,1.12,0.847,0.838,0.68,0.737,0.667
ABC-1,0.71,0.705,0.535,0.309,0.859,0.774,0.706,0.777,0.903,0.835,1.17,1.26,1.1,1.44,0.955,1.19,0.83,0.809,0.723
RERF-LC-KJ,1.41,1.31,1.34,1.27,1.31,0.946,1,1.11,0.987,0.852,0.65,0.708,0.629,0.654,0.908,1.06,0.915,0.907,0.884
NCI-H1563,0.527,0.58,0.584,0.549,0.564,,,,,,,,,,1.23,1.22,1.18,1.19,1.18
A-427,0.96,0.982,0.721,0.964,0.983,0.796,0.818,0.812,0.803,0.704,0.872,0.865,0.831,0.705,1.03,1.12,1.11,1.15,1.06
EKVX,0.946,0.771,0.809,0.796,0.915,1.11,0.852,0.817,0.775,0.866,0.843,0.718,0.697,0.682,1.08,0.849,0.851,1.19,0.941

Cell Line,relative viability (Nelarabine + Luminespib; first compound 0.01 µM),relative viability (Nelarabine + Luminespib; first compound 0.03162 µM),relative viability (Nelarabine + Luminespib; first compound 0.1 µM),relative viability (Nelarabine + Luminespib; first compound 0.3162 µM),relative viability (Nelarabine + Luminespib; first compound 1 µM),relative viability (Nelarabine + Olaparib; first compound 0.01 µM),relative viability (Nelarabine + Olaparib; first compound 0.03162 µM),relative viability (Nelarabine + Olaparib; first compound 0.1 µM),relative viability (Nelarabine + Olaparib; first compound 0.3162 µM),relative viability (Nelarabine + Olaparib; first compound 1 µM),relative viability (Adavosertib + Vorinostat; first compound 0.01 µM),relative viability (Adavosertib + Vorinostat; first compound 0.03162 µM),relative viability (Adavosertib + Vorinostat; first compound 0.1 µM),relative viability (Adavosertib + Vorinostat; first compound 0.3162 µM),relative viability (Nelarabine + Linsitinib; first compound 0.01 µM),relative viability (Nelarabine + Linsitinib; first compound 0.03162 µM),relative viability (Nelarabine + Linsitinib; first compound 0.1 µM),relative viability (Nelarabine + Linsitinib; first compound 0.3162 µM),relative viability (Nelarabine + Linsitinib; first compound 1 µM)
LOU-NH91,0.392,0.45,0.354,0.346,0.356,0.997,0.922,0.873,0.882,0.925,0.882,0.99,0.908,0.896,1.02,0.953,0.865,0.886,0.947
SW 900,0.175,0.175,0.173,0.179,0.179,0.843,0.752,0.96,0.949,0.797,0.445,0.492,0.424,0.268,,,,,
201T,1.09,1.09,1.03,1.07,1.04,0.876,0.835,0.845,0.858,0.835,0.953,1.01,0.95,1.05,1.18,0.942,1.07,0.958,0.96
NCI-H1793,0.421,0.156,0.201,0.251,0.191,1.36,,0.891,1.29,1.05,0.695,0.739,0.581,0.745,1.3,0.801,0.863,0.724,0.84
LXF-289,0.792,0.655,0.659,0.832,0.578,1.2,1.13,1.01,1.04,1.01,0.795,0.791,0.768,0.735,1.01,0.935,0.969,0.997,0.949
ChaGo-K-1,0.821,0.361,0.637,0.659,0.562,0.324,0.404,0.452,0.433,0.428,0.747,0.74,0.779,0.741,,,,,
NCI-H23,0.226,0.201,0.23,0.225,0.21,0.32,0.235,0.294,0.33,0.335,0.627,0.469,0.401,0.185,0.749,0.671,0.613,0.623,0.622
NCI-H1975,0.237,0.244,0.169,0.198,0.464,1.04,0.942,0.823,0.856,0.797,0.973,0.676,0.676,0.571,1.19,1.03,1.12,1.09,1.15
NCI-H3122,0.0966,0.11,,0.12,0.115,0.668,0.607,,0.745,0.661,0.991,0.942,0.857,0.992,1.04,0.77,,0.97,1.04
NCI-H838,0.316,0.321,0.31,0.257,0.221,0.839,0.743,0.849,0.89,0.852,0.706,0.694,0.701,0.67,1.29,0.907,1.06,1.11,1.13
Calu-6,,,,,,0.67,0.65,0.698,0.575,0.594,,,,,1.22,1.07,0.897,0.997,1
NCI-H1648,,,,,,,0.927,,0.889,0.714,0.498,0.407,0.419,0.532,,,,,
HCC-366,,,,,,0.33,0.327,0.434,0.385,0.389,0.353,0.411,0.319,0.219,1.21,0.427,0.551,0.785,0.769
EBC-1,,,,,,0.89,0.911,0.707,0.676,0.737,,,,,0.99,1.13,0.929,0.91,0.939
A549,,,,,,0.379,0.363,0.401,0.452,0.377,,,,,0.714,0.622,0.585,0.523,0.642
NCI-H2342,0.775,0.707,0.657,0.753,0.765,0.442,0.432,0.443,0.395,0.442,0.679,0.833,0.741,0.864,,,,,
HCC-78,,,,,,1.01,0.857,,0.914,0.87,0.492,0.437,0.473,0.42,0.627,0.506,,0.536,0.574
NCI-H1650,0.195,0.181,0.225,0.234,0.204,0.922,0.81,1,0.883,0.946,0.63,0.731,0.485,0.389,,,,,
NCI-H1299,,,,,,1,0.999,0.989,1.02,1.03,,,,,1.19,1.02,1.05,1.04,0.963
NCI-H522,,0.993,1.25,0.96,1.29,0.619,0.738,0.651,0.592,0.639,0.875,0.968,1.02,0.871,,,,,

# Reference: the supplement of paper PMC10307832
